Key:
Assay type in all cases: in vivo
[1] = test system: PDX TNBC Model CTG-0052; test: Antitumor effects in PDX mouse model of TNBC; settings: PDX model CTG-0052; A 10 mg/kg SC BID 3 days on/4 off ×4; B 7.5 mg/kg PO BID×28; versus vehicle
Description: (§1) Establish PDX tumor models from viable human tumor tissue and serially passage in immunocompromised female mice a limited number of times. Using tumor fragments harvested from donor host animals, perform unilateral subcutaneous implants from a specific passage of the PDX tumor model on the flanks of the experimental animals. When tumor volumes reach approximately 150-250 mm^3 in size, randomize the animals by treatment arm by randomization techniques well known in the art and place into their respective treatment groups using 1 animal per treatment group (3 animals in an untreated group). Formulate CHK1 inhibitor, 5-(5-(2-(3-aminopropoxy)-6-methoxyphenyl)-1H-pyrazol-3-ylamino)pyrazine-2-carbonitrile methanesulfonate hydrate, (Compound A) every 14 days in 20% captisol (dissolved in water) and administer subcutaneously twice daily at a dose of 10 mg/kg on days 1/2/3 of a weekly cycle for 4 weeks (SC, BID [3 days on/4 off]×4). Formulate the PI3K/mTOR dual inhibitor, 8-[5-(1-hydroxy-1-methylethyl)pyridin-3-yl]-1-[(2S)-2-methoxypropyl]-3-methyl-1,3-dihydro-2H-imidazo[4,5-c]quinolin-2-one, (Compound B) weekly in 1% (HEC)/0.25% Tween 80 (Polysorbate 80)/0.05% Dow-Corning Antifoam 1510-US and administer by oral gavage twice-daily for 28 days (PO, BID×28) at a dose of 7.5 mg/kg. Dose combination treatment animals with both compounds according to the schedule described above for monotherapy, and dose vehicle treatment animals with vehicle according to the schedule for Compound B.
(§2) Test the combination of Compound A and Compound B, as well as their respective monotherapies, in 40 PDX models (Table 1) of TNBC. Assess antitumor efficacy of the treatment groups by measuring tumor volume via caliper measurements twice a week during the course of the study. Measure body weight twice weekly during the course of the study as a general indicator of tolerability.
(§3) Capture tumor size and body weight twice per week. Estimate tumor volume (V) by using the formula: V=(π/6)×L×W^2 where L=larger of measured diameter and W=smaller perpendicular diameter. Calculate relative tumor volume using the tumor volume measurement taken nearest to the last day of dosing for each animal (T), divided by the baseline tumor volume for that animal (T0), which is the volume recorded on or just prior to the first day of dosing, Y=T/T0. Calculate % ΔT/ΔC values using the formula % ΔT/ΔC=100(YT−1)/(YC−1), whereby YT or YC=geometric mean relative volume of the compound treated group or the control group, respectively. Tumor growth inhibition is observed in those instances where the calculated values for % ΔT/ΔC are less than 100% whereby greater inhibition results in smaller % ΔT/ΔC values. If ΔT<0, then a tumor regression value is calculated instead of % ΔT/ΔC whereby % Regression=100(YT−1). Note that negative values indicate regression. We collectively refer to % ΔT/ΔC and % Regression as % Response.
(§4) Examine relative tumor volume (final volume divided by baseline volume) on the last day of treatment or the last day on which data from all three treatment groups and vehicle is available, if it is earlier than the last day of treatment and at least 14 days after baseline. Expected additive relative volume is determined using the Bliss method (Bliss, C. I., Ann Appl Biol, 1939; 26(3):585-615). Specifically, denoting Y=relative volume, YExp=(Y1*Y2)/YV, where YExp=expected additive relative volume, Y1 and Y2 are the relative volumes in the single agent groups (Compound A and Compound B), and YV is the relative volume in the vehicle group. A range of additivity is defined around the expected additive relative volume via upper and lower limits as follows:
(§5) Yupper=max(2*YExp,YExp+0.2)
(§6) Ylower=min(YExp/2,YExp−0.2)
(§7) The upper limit of the range is the larger of 2-fold above or 20% above the expected additive relative volume, and the lower limit is the smaller of 2-fold below or 20% below the expected additive relative volume. […]

[2] = test system: PDX TNBC Model CTG-1106; test: Antitumor effects in PDX mouse model of TNBC; settings: PDX model CTG-1106; A 10 mg/kg SC BID 3 days on/4 off ×4; B 7.5 mg/kg PO BID×28; versus vehicle
Description: as §1, §2, §3, §4, §5, §6, §7

[3] = test system: PDX TNBC Model CTG-1350; test: Antitumor effects in PDX mouse model of TNBC; settings: PDX model CTG-1350; A 10 mg/kg SC BID 3 days on/4 off ×4; B 7.5 mg/kg PO BID×28; versus vehicle
Description: as §1, §2, §3, §4, §5, §6, §7

[4] = test system: PDX TNBC Model MAXF 1384; test: Antitumor effects in PDX mouse model of TNBC; settings: PDX model MAXF 1384; A 10 mg/kg SC BID 3 days on/4 off ×4; B 7.5 mg/kg PO BID×28; versus vehicle
Description: as §1, §2, §3, §4, §5, §6, §7

[5] = test system: PDX TNBC Model MAXF 574; test: Antitumor effects in PDX mouse model of TNBC; settings: PDX model MAXF 574; A 10 mg/kg SC BID 3 days on/4 off ×4; B 7.5 mg/kg PO BID×28; versus vehicle
Description: as §1, §2, §3, §4, §5, §6, §7

[6] = test system: PDX TNBC Model MAXF 857; test: Antitumor effects in PDX mouse model of TNBC; settings: PDX model MAXF 857; A 10 mg/kg SC BID 3 days on/4 off ×4; B 7.5 mg/kg PO BID×28; versus vehicle
Description: as §1, §2, §3, §4, §5, §6, §7

[7] = test system: PDX TNBC Model ST069; test: Antitumor effects in PDX mouse model of TNBC; settings: A 10 mg/kg SC BID 3 days on/4 off ×4, B 7.5 mg/kg PO BID×28, versus vehicle
Description: as §1, §2, §3, §4, §5, §6, §7

[8] = test system: PDX TNBC Model ST1077; test: Antitumor effects in PDX mouse model of TNBC; settings: A 10 mg/kg SC BID 3 days on/4 off ×4, B 7.5 mg/kg PO BID×28, versus vehicle
Description: as §1, §2, §3, §4, §5, §6, §7

[9] = test system: PDX TNBC Model ST1283; test: Antitumor effects in PDX mouse model of TNBC; settings: A 10 mg/kg SC BID 3 days on/4 off ×4, B 7.5 mg/kg PO BID×28, versus vehicle
Description: as §1, §2, §3, §4, §5, §6, §7

[10] = test system: PDX TNBC Model ST2057; test: Antitumor effects in PDX mouse model of TNBC; settings: A 10 mg/kg SC BID 3 days on/4 off ×4, B 7.5 mg/kg PO BID×28, versus vehicle
Description: as §1, §2, §3, §4, §5, §6, §7

[11] = test system: PDX TNBC Model ST231; test: Antitumor effects in PDX mouse model of TNBC; settings: A 10 mg/kg SC BID 3 days on/4 off ×4, B 7.5 mg/kg PO BID×28, versus vehicle
Description: as §1, §2, §3, §4, §5, §6, §7

[12] = test system: PDX TNBC Model ST319; test: Antitumor effects in PDX mouse model of TNBC; settings: A 10 mg/kg SC BID 3 days on/4 off ×4, B 7.5 mg/kg PO BID×28, versus vehicle
Description: as §1, §2, §3, §4, §5, §6, §7

[13] = test system: PDX TNBC Model ST518; test: Antitumor effects in PDX mouse model of TNBC; settings: A 10 mg/kg SC BID 3 days on/4 off ×4, B 7.5 mg/kg PO BID×28, versus vehicle
Description: as §1, §2, §3, §4, §5, §6, §7

[14] = test system: PDX TNBC Model ST848; test: Antitumor effects in PDX mouse model of TNBC; settings: A 10 mg/kg SC BID 3 days on/4 off ×4, B 7.5 mg/kg PO BID×28, versus vehicle
Description: as §1, §2, §3, §4, §5, §6, §7

[15] = test system: PDX TNBC Model ST996; test: Antitumor effects in PDX mouse model of TNBC; settings: A 10 mg/kg SC BID 3 days on/4 off ×4, B 7.5 mg/kg PO BID×28, versus vehicle
Description: as §1, §2, §3, §4, §5, §6, §7

[16] = test system: PDX mouse models of TNBC; test: Antitumor effects across the panel of 40 PDX mouse models of TNBC; settings: range across PDX TNBC models of Table 4
Description: Establish PDX tumor models from viable human tumor tissue and serially passage in immunocompromised female mice a limited number of times. Using tumor fragments harvested from donor host animals, perform unilateral subcutaneous implants from a specific passage of the PDX tumor model on the flanks of the experimental animals. When tumor volumes reach approximately 150-250 mm^3 in size, randomize the animals by treatment arm by randomization techniques well known in the art and place into their respective treatment groups using 1 animal per treatment group (3 animals in an untreated group). […]
as §3, with “Calculate % ΔT/ΔC values using the formula % ΔT/ΔC=100(YT−1)/(YC−1), whereby YT or YC=geometric mean relative volume of the compound treated group or the control group, respectively.” left out, “Note that negative values indicate regression. We collectively refer to % ΔT/ΔC and % Regression as % Response.” left out

| Structure (SMILES) | % Rsp. (% ΔT/ΔC or % Regression) [1] [%] | % Rsp. (% ΔT/ΔC or % Regression) [2] [%] | % Rsp. (% ΔT/ΔC or % Regression) [3] [%] | % Rsp. (% ΔT/ΔC or % Regression) [4] [%] | % Rsp. (% ΔT/ΔC or % Regression) [5] [%] | % Rsp. (% ΔT/ΔC or % Regression) [6] [%] | % Rsp. (% ΔT/ΔC or % Regression) [7] [%] | % Rsp. (% ΔT/ΔC or % Regression) [8] [%] | % Rsp. (% ΔT/ΔC or % Regression) [9] [%] | % Rsp. (% ΔT/ΔC or % Regression) [10] [%] | % Rsp. (% ΔT/ΔC or % Regression) [11] [%] | % Rsp. (% ΔT/ΔC or % Regression) [12] [%] | % Rsp. (% ΔT/ΔC or % Regression) [13] [%] | % Rsp. (% ΔT/ΔC or % Regression) [14] [%] | % Rsp. (% ΔT/ΔC or % Regression) [15] [%] | efficacy values, % response, range over the models [16] |
| --- | --- | --- | --- | --- | --- | --- | --- | --- | --- | --- | --- | --- | --- | --- | --- | --- |
| COc1cccc(OCCCN)c1-c1cc(Nc2cnc(C#N)cn2)n[nH]1.CS(=O)(=O)O [Compound A, 5-(5-(2-(3-aminopropoxy)-6-methoxyphenyl)-1H-pyrazol-3-ylamino)pyrazine-2-carbonitrile methanesulfonate hydrate] | 41.3 | −39.0 | 20.3 | 52.8 | 22.9 | 32.4 | −79.6 | 0.0 | 0.0 | 44.8 | −74.6 | 8.9 | −23.4 | −50.0 | 0.7 | 126.1% to −100 |
| CO[C@@H](C)Cn1c(=O)n(C)c2cnc3ccc(-c4cncc(C(C)(C)O)c4)cc3c21 [Compound B, 8-[5-(1-hydroxy-1-methylethyl)pyridin-3-yl]-1-[(2S)-2-methoxypropyl]-3-methyl-1,3-dihydro-2H-imidazo[4,5-c]quinolin-2-one] | 8.6 | −31.0 | 7.7 | 60.3 | 59.4 | 72.7 | 112.0 | 9.1 | 23.3 | 26.9 | 76.8 | 40.3 | 66.5 | 24.6 | 23.5 | 163% to −31 |

Reference: US20180228795A1, “COMBINATION THERAPY FOR CANCER” (Eli Lilly and Company, priority 2015, published 2018)
